Test results: publication PMC6884456, “Supreme activity of gramicidin S against resistant, persistent and biofilm cells of staphylococci and enterococci” (Scientific Reports, 2019)
Where no end group is shown, it is not given here.

Legend:
S. aureus DSM 1104 SCV [1] = format: cell-based, Staphylococcus aureus; conditions: spotted from MIC plates on Mueller-Hinton agar, overnight, no colonies
Method: MBC was determined directly after the MIC evaluation.

E. faecalis TRE4 = format: cell-based, Enterococcus faecalis; conditions: E. faecalis TRE4; spotted from MIC plates on Mueller-Hinton agar, overnight, no colonies
S. aureus MRSA9 = format: cell-based, Staphylococcus aureus; conditions: S. aureus MRSA9; spotted from MIC plates on Mueller-Hinton agar, overnight, no colonies
E. faecalis TRE2 [2] = format: cell-based, Enterococcus faecalis; conditions: E. faecalis TRE2; spotted from MIC plates on Mueller-Hinton agar, overnight, no colonies
S. aureus DSM 1104 SCV [3] = format: cell-based, Staphylococcus aureus; conditions: value in parentheses
Method: (§1) This parameter quantifies the ability of the peptides to prevent biofilm outgrowth.
(§2) After co-incubation with peptides at 37 °C and 5% CO2 without agitation for 24 hours, the planktonic cells were washed, and Crystal violet staining was applied.

E. faecium VRE2 = format: cell-based, Enterococcus faecium; conditions: E. faecium VRE2; spotted from MIC plates on Mueller-Hinton agar, overnight, no colonies
S. aureus MRSA3 = format: cell-based, Staphylococcus aureus; conditions: S. aureus MRSA3; spotted from MIC plates on Mueller-Hinton agar, overnight, no colonies
E. faecalis TRE2 [4] = conditions: E. faecalis TRE2; value in parentheses
Method: as §1, §2

E. faecalis WW6 [5] = conditions: E. faecalis WW6; Todd-Hewitt broth, 5 × 10^7 CFU/ml, 24 h, 37 °C, Crystal violet
Method: as §1, §2

S. aureus DSM 1104 [6] = conditions: S. aureus DSM 1104; value in parentheses
Method: as §1, §2

S. aureus MRSA8 SCV [7] = conditions: value in parentheses
Method: as §1, §2

E. faecalis DSM 2570 [8] = conditions: E. faecalis DSM 2570; value in parentheses
Method: as §1, §2

[9] = Chromatographic hydrophobicity index (CHI), C18
Method: (§3) HPLC was performed on an Agilent 1100 system with an ultraviolet diode array detector. […] Binding measurements were performed using Regis Technologies IAM.PC.DD2 (100 × 4.6 mm), HiChrom Chiralpak-HSA (50 × 3 mm) and HiChrom Chiralpak-AGP (50 × 3 mm) columns. […] Retention times were converted to log k and % binding, using calibration routines described in[72].

S. aureus MRSA538 SCV = conditions: spotted from MIC plates on Mueller-Hinton agar, overnight, no colonies
Method: (§4) MBC was determined directly after the MIC evaluation. The 10 µl samples of all 8 dilution rows in the microtiter plates were spotted on square Mueller-Hinton agar plates and incubated overnight at 37 °C and 5% CO2. The MBC was determined as the concentration at which no bacterial colonies were obtained on the two parallel spotted plates.

S. aureus MRSA9 SCV = conditions: spotted from MIC plates on Mueller-Hinton agar, overnight, no colonies
Method: as §4

S. aureus MRSA8 SCV [10] = conditions: spotted from MIC plates on Mueller-Hinton agar, overnight, no colonies
Method: as §4

S. aureus MRSA4 = format: cell-based, Staphylococcus aureus; conditions: S. aureus MRSA4; spotted from MIC plates on Mueller-Hinton agar, overnight, no colonies
E. faecium VRE1 = format: cell-based, Enterococcus faecium; conditions: E. faecium VRE1; spotted from MIC plates on Mueller-Hinton agar, overnight, no colonies
E. faecalis TRE1 = format: cell-based, Enterococcus faecalis; conditions: E. faecalis TRE1; spotted from MIC plates on Mueller-Hinton agar, overnight, no colonies
[11] = biological target: human serum albumin (HSA) (Homo sapiens, UniProt P02768); assay: HSA binding, biomimetic chromatography; conditions: Chiralpak-HSA column
Method: as §3

E. faecalis DSM 2570 [12] = format: cell-based, Enterococcus faecalis; conditions: E. faecalis DSM 2570; spotted from MIC plates on Mueller-Hinton agar, overnight, no colonies
E. faecalis WW4 = format: cell-based, Enterococcus faecalis; conditions: E. faecalis WW4; spotted from MIC plates on Mueller-Hinton agar, overnight, no colonies
[13] = system: α1-acid glycoprotein (AGP); assay: AGP binding, biomimetic chromatography; conditions: Chiralpak-AGP column
Method: as §3

S. aureus DSM 1104 [14] = format: cell-based, Staphylococcus aureus; conditions: S. aureus DSM 1104; 10 µl from MIC plates spotted on Mueller-Hinton agar, overnight 37 °C, no colonies on two plates
human erythrocytes = assay: Haemolysis assay; format: cell-based; conditions: 0.25% human erythrocyte suspension, 37 °C, 30 min, A540, relative to 0.1% Triton X-100
Method: Haemolytic activity was determined with a serial 2-fold dilution assay. Citrate phosphate dextrose-stabilized human erythrocyte suspensions were obtained from Karlsruhe Municipal Hospital. […] The mixture was pelleted (13 000 rpm, 10 min, 4 °C), and the absorbance of the supernatant was recorded at 540 nm vs. reaction buffer. The extent of haemolysis was related to the action of 0.1% Triton X-100 (100%).

Danio rerio embryos = assay: Acute toxicity in Danio rerio embryos; format: in vivo; conditions: zebrafish embryos 72 hpf, E3 medium, heart beat
Method: Experiments were performed in accordance with the relevant OECD testing guidelines[73] and German animal protection standards. Wild type D. rerio embryos were obtained at the European Zebrafish Resource Center (Karlsruhe). Fertilized eggs (6 hpf) were raised in 4 ml of embryonic medium (E3) at 28 °C until 72 hpf (6-well plate, 20 eggs/well). Embryos were transferred into flat-bottom glass vials (E3, 1 ml, 15–20 embryos/vial). Peptides were added as 20 µl aliquots in 10% dimethyl sulfoxide in serial 2-fold dilutions. Toxicity was expressed as the concentration at which 50% of the embryos were visually observed to die (measured at 1 and 3 hours exposure) by identifying the heart beat.

E. faecalis WW6 [15] = format: cell-based, Enterococcus faecalis; conditions: E. faecalis WW6; spotted from MIC plates on Mueller-Hinton agar, overnight, no colonies
[16] = 50 mM ammonium acetate pH 7.4, 0–35% 2-propanol gradient, calibrated retention times, UV
[17] = pH 7.4, 0–35% 2-propanol gradient, value in parentheses

Chain of human serum albumin (HSA) (P02768 25-609): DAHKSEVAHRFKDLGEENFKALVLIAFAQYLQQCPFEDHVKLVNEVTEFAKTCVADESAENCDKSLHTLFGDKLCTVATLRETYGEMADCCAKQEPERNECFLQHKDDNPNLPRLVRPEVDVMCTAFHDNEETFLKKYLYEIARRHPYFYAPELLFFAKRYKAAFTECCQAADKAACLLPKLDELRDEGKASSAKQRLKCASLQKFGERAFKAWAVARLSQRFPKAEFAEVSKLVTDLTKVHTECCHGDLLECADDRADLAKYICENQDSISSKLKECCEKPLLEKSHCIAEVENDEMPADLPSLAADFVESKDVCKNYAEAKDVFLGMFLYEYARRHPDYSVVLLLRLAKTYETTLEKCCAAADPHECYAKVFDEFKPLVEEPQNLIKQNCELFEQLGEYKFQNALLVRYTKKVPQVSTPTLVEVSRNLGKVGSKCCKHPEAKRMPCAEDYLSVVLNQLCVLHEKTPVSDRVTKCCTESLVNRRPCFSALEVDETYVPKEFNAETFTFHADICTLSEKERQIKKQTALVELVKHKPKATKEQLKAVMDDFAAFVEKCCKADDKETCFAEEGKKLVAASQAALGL

VRLIVAVRIWRR-NH2 [IDR, IDR-1018]
MBC (S. aureus DSM 1104 SCV [1]): 128 (83) µg/ml | MBC (E. faecalis TRE4): 16 (10) µg/ml | MBC (S. aureus MRSA9): 128 (83) µg/ml | MBC (E. faecalis TRE2 [2]): 128 (83) µg/ml | MBIC90 (S. aureus DSM 1104 SCV [3]): 83 µM | MBC (E. faecium VRE2): 32 (21) µg/ml | MBC (S. aureus MRSA3): 128 (83) µg/ml | MBIC90 (E. faecalis TRE2 [4]): 167 µM | MBIC90 (E. faecalis WW6 [5]): > 256 µg/mL | MBIC90 (S. aureus DSM 1104 [6]): 42 µM | MBIC90 (S. aureus MRSA8 SCV [7]): 42 µM | MBIC90 (E. faecalis DSM 2570 [8]): 167 µM | chromatographic logD ([9]; pH 2.6): -0.53 | chromatographic logD ([9]; pH 7.4): 0.88 | chromatographic logD ([9]; pH 10.5): 4.43 | MBC (S. aureus MRSA538 SCV): 128 (83) µg/ml | MBC (S. aureus MRSA9 SCV): 128 (83) µg/ml | MBC (S. aureus MRSA8 SCV [10]): 128 (83) µg/ml | MBC (S. aureus MRSA4): > 256 µg/mL | MBC (E. faecium VRE1): 32 (21) µg/ml | MBC (E. faecalis TRE1): 64 (42) µg/ml | Bound HSA [11, 16]: 97.98% | log k HSA [11, 17]: 1.51 | MBC (E. faecalis DSM 2570 [12]): 64 (42) µg/ml | MBC (E. faecalis WW4): 64 (42) µg/ml | Bound AGP [13, 16]: 93.37% | log k AGP [13, 17]: 1.09 | MBC (S. aureus DSM 1104 [14]): 128 (83) µg/ml | Haemolysis at 5 μM (human erythrocytes; 5 μM peptide): 18% | Haemolysis at 10 μM (human erythrocytes; 10 μM peptide): 28% | 1h LD50 (Danio rerio embryos; 1 hour exposure): 15 µg/mL | 3h LD50 (Danio rerio embryos; 3 hours exposure): 11 µg/mL | MBC (E. faecalis WW6 [15]): 64 (42) µg/ml
